Measurements taken from patent US5227398A, “Benzodioxole derivatives and hepatopathy improvers comprising the same” (Tsumura & Co., priority 1990, dated 1993).
Where a name gives a salt, the structure may show the parent alone.

Assays:
[1] = system: CCl4 -induced hepatopath rats; assay: Hepatopathy improving effects for CCl4-induced hepatopath rats (inhibition to the increase of transaminase in serum); format: in vivo; conditions: SD male rats, 100 mg/kg oral, 30 min before CCl4 (diluted fourfold with olive oil, peritoneally, 4 mg/kg), blood after 24 hours; for Serum GPT: Control 1 (no CCl4) 20, Control 2 (CCl4 alone) 1071; for Serum GOT: Control 1 (no CCl4) 89, Control 2 (CCl4 alone) 7719
Experimental: The hepatopathy improving effects of the compounds (I') of this invention for CCl4 -induced hepatopath rats were investigated by using, as an index, the inhibition to the increase of transaminase in serum. After SD male rats (7 weeks old; Japanese Charles River) had been fasted for 24 hours, test drugs were orally administered at 100 mg/kg. Thirty minutes later, a CCl4 solution (diluted fourfold with olive oil) was peritoneally administered at 4 mg/kg. The rats were fasted further for 24 hours and then anesthetized with 1 ml/kg of sodium pentobarbital. After a blood sample was collected from the descending abdominal aorta of each rat, the liver was enucleated and its wet weight was measured. Further, the GOT and GPT of a serum, which had been obtained from the blood sample so collected, were measured by an automatic chemical analyzer ("TBA-380", trade name; manufactured by Toshiba Corp.). Thick serums were measured after dilution in distilled water.
Note: Control 1 is a group not administered with CCl4 while Control
is a group administered with CCl4 alone.

hepatopath = conditions: previously found by the present assignee; cited from earlier work

Row | Structure (SMILES) | Serum GPT [1] | Serum GOT [1] | improvement of GPT and GOT value of a hepatopath (hepatopath)
1 | c1csc(=Nc2ccc3c(c2)OCO3)s1 [Example 1, N,N-(1,3-dithiol-2-ylidene)-1,3-benzodioxol-5-amine] | 74 U/1 | 432 U/1 | –
2 | CC(C)OC(=O)C(C(=O)c1ccc2c(c1)OCO2)=C1SC=CS1 [Example 2, isopropyl 2-(1,3-dithiol-2-ylidene)-3-[3,4-(methylenedioxy)phenyl]-3-oxopropionate] | 100 U/1 | 563 U/1 | –
3 | CC(C)OC(=O)C(=C1SC=CS1)c1ccc2c(c1)OCO2 [Example 3, isopropyl 2-(1,3-dithiol-2-ylidene)-2-[3,4-(methylenedioxy)phenyl]acetate] | 557 U/1 | 2573 U/1 | –
4 | CSCC(N)C(=O)Nc1ccc2c(c1)OCO2 (stereo not shown) [Example 5, [(3,4-methylenedioxy)aniline]-S-methylcysteinamide hydrochloride] | 57 U/1 | 391 U/1 | –
5 | CSC(=S)Nc1ccc2c(c1)OCO2 [Synthesis Example 1, methyl N-(3,4-methylenedioxyphenyl)dithiocarbamate] | 230 U/1 | 1027 U/1 | –
6 | COC(=O)CNc1ccc2c(c1)OCO2 [Synthesis Example 2, methyl 2-[N-(3,4-methylenedioxyphenyl)amino]acetate] | 310 U/1 | 1400 U/1 | –
7 | COc1cc2c(c(OC)c1OC)-c1c(cc3c(c1OC)OCO3)CC(C)C(C)(O)C2 (stereo not shown) [gomisin A] | – | – | can promptly improve the GPT and GOT value of a hepatopath
